We go through 23 compounds from patent US12421205B2, “GLP-1 receptor agonist” (HYUNDAI PHARM CO., LTD., priority 2019, dated 2025).

A word on the EC50: it is the concentration giving half of the maximal effect. The inhibition is the change of the read-out against control, counted positive when it falls.

In data set [1] the target is T1, human GLP-1 receptor (Homo sapiens, UniProt P43220).
T1 construct: host or cells: CHO-K1
Kind of data set: cAMP activity test (cAMP dynamic HTRF kit) in CHO-K1/GLP-1 receptor-expressing cells. Format: cell-based. The following applies: cAMP activity, CHO-K1/GLP-1 receptor-expressing cells; read-out: EC50. A digest of the protocol: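 Cells in HBSS with 0.1% BSA, 0.5 mM IBMX and 5 mM HEPES, then lysed; cAMP-d2 and anti-cAMP cryptate added for 3 h. HTRF read-out, where FRET signal is inversely proportional to intracellular cAMP.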
On the technique in general: Time-resolved FRET reads energy transfer from a long-lived donor to a nearby acceptor.

The target in data set [2] is T2, hERG (Homo sapiens, UniProt Q12809).
T2 construct: purchased Invitrogen PV5365
T2 sequence (Q12809 whole entry): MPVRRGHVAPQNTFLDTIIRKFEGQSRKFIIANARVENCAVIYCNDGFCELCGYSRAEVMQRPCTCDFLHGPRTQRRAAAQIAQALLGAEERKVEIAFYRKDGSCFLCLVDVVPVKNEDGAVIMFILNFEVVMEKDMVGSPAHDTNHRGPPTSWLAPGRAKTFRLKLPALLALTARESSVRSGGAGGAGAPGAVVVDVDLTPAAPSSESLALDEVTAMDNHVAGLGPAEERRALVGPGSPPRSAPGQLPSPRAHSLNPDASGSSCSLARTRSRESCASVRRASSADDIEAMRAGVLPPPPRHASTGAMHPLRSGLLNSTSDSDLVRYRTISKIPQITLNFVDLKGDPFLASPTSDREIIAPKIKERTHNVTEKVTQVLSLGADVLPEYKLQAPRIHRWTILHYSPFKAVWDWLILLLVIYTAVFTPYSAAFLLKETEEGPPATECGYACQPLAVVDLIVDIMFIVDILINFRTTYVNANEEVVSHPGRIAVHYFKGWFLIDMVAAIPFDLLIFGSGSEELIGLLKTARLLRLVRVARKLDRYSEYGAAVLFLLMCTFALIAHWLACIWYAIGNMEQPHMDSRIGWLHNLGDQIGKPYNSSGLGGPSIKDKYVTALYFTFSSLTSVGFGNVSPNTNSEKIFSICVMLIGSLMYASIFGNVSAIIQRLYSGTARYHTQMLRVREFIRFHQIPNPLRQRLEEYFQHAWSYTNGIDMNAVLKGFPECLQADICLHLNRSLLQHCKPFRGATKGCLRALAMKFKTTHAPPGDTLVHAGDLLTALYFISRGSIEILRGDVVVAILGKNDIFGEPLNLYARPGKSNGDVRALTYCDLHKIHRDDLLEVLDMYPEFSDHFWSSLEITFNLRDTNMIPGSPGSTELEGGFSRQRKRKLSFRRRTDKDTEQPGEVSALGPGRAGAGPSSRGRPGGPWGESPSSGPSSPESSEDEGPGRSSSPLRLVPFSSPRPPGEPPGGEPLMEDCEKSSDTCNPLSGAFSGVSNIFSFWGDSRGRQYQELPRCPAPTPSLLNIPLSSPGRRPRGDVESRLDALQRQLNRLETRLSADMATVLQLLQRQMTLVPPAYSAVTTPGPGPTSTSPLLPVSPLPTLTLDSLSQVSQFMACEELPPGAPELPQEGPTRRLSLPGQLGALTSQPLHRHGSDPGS
Kind of data set: hERG inhibition test (Predictor hERG Fluorescence Polarization assay kit). Format: binding. The following applies: probe kit Tracer (fluorescent hERG ligand), hERG % inhibition at 10 uM, relative to E-4031 and solvent control. A digest of the protocol:
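Competitive fluorescence-polarization binding of fluorescent tracer to hERG membrane preparation, 2.5 h at room temperature, mP read at 531/579 nm. % inhibition at 10 uM test compound, scaled between solvent control (0%) and E-4031 (100%).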

T1 sequence (P43220 24-463): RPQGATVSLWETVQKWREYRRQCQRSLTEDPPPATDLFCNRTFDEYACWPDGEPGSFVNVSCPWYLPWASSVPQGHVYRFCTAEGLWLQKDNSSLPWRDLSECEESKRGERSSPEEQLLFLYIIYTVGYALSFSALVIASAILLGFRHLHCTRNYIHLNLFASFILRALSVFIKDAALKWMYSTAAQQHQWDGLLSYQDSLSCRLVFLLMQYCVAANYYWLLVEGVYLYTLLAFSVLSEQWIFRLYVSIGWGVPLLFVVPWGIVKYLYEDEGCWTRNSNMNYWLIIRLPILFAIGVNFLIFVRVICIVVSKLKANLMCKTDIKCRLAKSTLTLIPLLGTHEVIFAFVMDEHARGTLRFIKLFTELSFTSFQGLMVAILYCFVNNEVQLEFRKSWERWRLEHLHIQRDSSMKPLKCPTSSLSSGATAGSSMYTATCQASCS

With `O=C(O)c1ccc2nc(Cc3ccc(-c4cccc(OCc5ccc(Cl)cc5F)n4)cc3)n(Cc3ccco3)c2c1` [Example 12, 2-(4-(6-(4-chloro-2-fluorobenzyloxy)pyridin-2-yl)benzyl)-1-(furan-2-ylmethyl)-1H-benzo[d]imidazole-6-carboxylic acid], the EC50 in data set [1] came to 85 nM. Also, the inhibition at 2.5 h, 10 µM in data set [2] is -2.74%.
In the case of `COCCn1c(Cc2ccc(-c3cccc(OCc4ccc(Cl)cc4F)n3)cc2[N+](=O)[O-])nc2ccc(C(=O)O)cc21` [Example 5, 2-(4-(6-(4-chloro-2-fluorobenzyloxy)pyridin-2-yl)-2-nitrobenzyl)-1-(2-methoxyethyl)-1H-benzo[d]imidazole-6-carboxylic acid], in data set [1], the EC50 stood at 620 nM. Moreover, in data set [2], the inhibition at 2.5 h, 10 µM was 2.74%.
For the compound `N#Cc1ccc(COc2cccc(-c3ccc(Cc4nc5ccc(C(=O)O)cc5n4C[C@@H]4CCCO4)cc3F)n2)c(F)c1` [Example 67, (S)-2-(4-(6-(4-cyano-2-fluorobenzyloxy)pyridin-2-yl)-3-fluorobenzyl)-1-((tetrahydrofuran-2-yl)methyl)-1H-benzo[d]imidazole-6-carboxylic acid], the EC50 in data set [1] came out at 11 nM. Also, the inhibition at 2.5 h, 10 µM in data set [2] was 0.85%.
Consider `N#Cc1ccc(COc2cccc(-c3ccc(Cc4nc5ccc(C(=O)O)cc5n4C[C@H]4CCCO4)c(F)c3)c2)c(F)c1` [Example 46, (R)-2-((3′-(4-cyano-2-fluorobenzyloxy)-3-fluorobiphenyl-4-yl)methyl)-1-((tetrahydrofuran-2-yl)methyl)-1H-benzo[d]imidazole-6-carboxylic acid], for which the concentration for a half-maximal effect (EC50) in data set [1] is 260 nM. Further, the inhibition at 2.5 h, 10 µM in data set [2] is 1.04%.
As for `O=C(O)c1ccc2nc(Cc3ccc(-c4cccc(OCc5ccc(Cl)cc5F)c4)c(F)c3)n(C[C@H]3CCCO3)c2c1` [Example 42, (R)-2-((3′-(4-chloro-2-fluorobenzyloxy)-2-fluorobiphenyl-4-yl)methyl)-1-((tetrahydrofuran-2-yl)methyl)-1H-benzo[d]imidazole-6-carboxylic acid], in data set [1], the EC50 turned out to be 250 nM. For the same compound, the inhibition at 2.5 h, 10 µM in data set [2] is -23.6%.
On the same counts, the results for `COCCn1c(Cc2ccc(-c3cccc(OCc4ccc(C#N)cc4F)n3)cc2)nc2ccc(C(=O)O)cc21` [Example 20, 2-(4-(6-(4-cyano-2-fluorobenzyloxy)pyridin-2-yl)benzyl)-1-(2-methoxyethyl)-1H-benzo[d]imidazole-6-carboxylic acid] are 240 nM and 6.19%.
On the same counts, the results for `COCCn1c(Cc2ccc(-c3cccc(OCc4ccc(Cl)cc4F)c3)c(F)c2)nc2ccc(C(=O)O)cc21` [Example 39, 2-((3′-(4-chloro-2-fluorobenzyloxy)-2-fluorobiphenyl-4-yl)methyl)-1-(2-methoxyethyl)-1H-benzo[d]imidazole-6-carboxylic acid] are 250 nM and -12.8%.
Regarding `O=C(O)c1ccc2nc(Cc3ccc(-c4ccc(F)c(OCc5ccc(Cl)cc5F)c4)cc3F)n(CC3CCCO3)c2c1` (stereo not shown) [Example 95, 2-((3′-(4-chloro-2-fluorobenzyloxy)-3,4′-difluorobiphenyl-4-yl)methyl)-1-((tetrahydrofuran-2-yl)methyl)-1H-benzo[d]imidazole-6-carboxylic acid], the EC50 in data set [1] was found to be 100 nM. Further, the inhibition at 2.5 h, 10 µM in data set [2] is -38.2%.
On the same counts, the results for `N#Cc1ccc(COc2cccc(-c3ccc(Cc4nc5ccc(C(=O)O)cc5n4CC4CCCO4)c(F)c3)n2)cc1` (stereo not shown) [Example 87, 2-(4-(6-(4-cyanobenzyloxy)pyridin-2-yl)-2-fluorobenzyl)-1-((tetrahydrofuran-2-yl)methyl)-1H-benzo[d]imidazole-6-carboxylic acid] are 18 nM and 32.9%.
Turning to `Cc1cc(-c2cccc(OCc3ccc(C#N)cc3F)n2)ccc1Cc1nc2ccc(C(=O)O)cc2n1C[C@@H]1CCO1` [Example 133, (S)-2-(4-(6-((4-cyano-2-fluorobenzyl)oxy)pyridin-2-yl)-2-methylbenzyl)-1-(oxetan-2-ylmethyl)-1H-benzo[d]imidazole-6-carboxylic acid], the EC50 in data set [1] was determined as 14 nM. The inhibition at 2.5 h, 10 µM in data set [2] is 41%.
On the same counts, the results for `O=C(O)c1ccc2nc(Cn3cnc(-c4cccc(OCc5ccc(Cl)cc5F)n4)cc3=O)n(CC3CCCO3)c2c1` (stereo not shown) [Example 112, 2-((4-(6-(4-chloro-2-fluorobenzyloxy)pyridin-2-yl)-6-oxopyrimidin-1(6H)-yl)methyl)-1-((tetrahydrofuran-2-yl)methyl)-1H-benzo[d]imidazole-6-carboxylic acid] are 290 nM and 1.14%.
Consider `COCCn1c(Cc2ccc(-c3cccc(OCc4ccc(Cl)cc4F)c3)cc2F)nc2ccc(C(=O)O)cc21` [Example 36, 2-((3′-(4-chloro-2-fluorobenzyloxy)-3-fluorobiphenyl-4-yl)methyl)-1-(2-methoxyethyl)-1H-benzo[d]imidazole-6-carboxylic acid], for which, in data set [1], the EC50 was determined as 88 nM. Besides, the inhibition at 2.5 h, 10 µM in data set [2] was -10.8%.
Turning to `O=C(O)c1ccc2nc(Cc3ccc(-c4cccc(OCc5ccc(Cl)cc5F)n4)c(F)c3)n(C[C@@H]3CCO3)c2c1` [Example 79, (S)-2-(4-(6-(4-chloro-2-fluorobenzyloxy)pyridin-2-yl)-3-fluorobenzyl)-1-(oxetan-2-ylmethyl)-1H-benzo[d]imidazole-6-carboxylic acid], the EC50 in data set [1] was below 3.2 nM. Besides, in data set [2], the inhibition at 2.5 h, 10 µM is -2.04%.
On the same counts, the results for `N#Cc1ccc(COc2cccc(-c3ccc(Cc4nc5ccc(C(=O)O)cc5n4C[C@@H]4CCO4)cc3F)n2)cc1` [Example 118, (S)-2-(4-(6-((4-cyanobenzyl)oxy)pyridin-2-yl)-3-fluorobenzyl)-1-(oxetan-2-ylmethyl)-1H-benzo[d]imidazole-6-carboxylic acid] are 4.3 nM and 20.7%.
On the same counts, the results for `N#Cc1ccc(COc2cccc(-c3cc(F)c(Cc4nc5ccc(C(=O)O)cc5n4CC4CCCO4)cc3F)n2)c(F)c1` (stereo not shown) [Example 71, 2-(4-(6-(4-cyano-2-fluorobenzyloxy)pyridin-2-yl)-2,5-difluorobenzyl)-1-((tetrahydrofuran-2-yl)methyl)-1H-benzo[d]imidazole-6-carboxylic acid] are below 3.2 nM and -2.52%.
With `O=C(O)c1ccc2nc(Cc3ccc(-c4cccc(OCc5ccc(Cl)cc5F)n4)cc3F)n(CC3CCCO3)c2c1` (stereo not shown) [Example 17, 2-(4-(6-(4-chloro-2-fluorobenzyloxy)pyridin-2-yl)-2-fluorobenzyl)-1-((tetrahydrofuran-2-yl)methyl)-1H-benzo[d]imidazole-6-carboxylic acid], the EC50 in data set [1] was found to be 8.2 nM. Further, the inhibition at 2.5 h, 10 µM in data set [2] was -9.12%.
For `O=C(O)c1ccc2nc(Cc3ccc(-c4cccc(OCc5ccncc5)n4)c(F)c3)n(C[C@@H]3CCO3)c2c1` [Example 128, (S)-2-(3-fluoro-4-(6-(pyridin-4-ylmethoxy)pyridin-2-yl)benzyl)-1-(oxetan-2-ylmethyl)-1H-benzo[d]imidazole-6-carboxylic acid], the concentration for a half-maximal effect (EC50) in data set [1] was 260 nM. Further, the inhibition at 2.5 h, 10 µM in data set [2] is -6.1%.
`COCCn1c(Cc2ccc(-c3cccc(OCc4ccc(C#N)cc4F)c3)c(F)c2)nc2ccc(C(=O)O)cc21` [Example 40, 2-((3′-(4-cyano-2-fluorobenzyloxy)-2-fluorobiphenyl-4-yl)methyl)-1-(2-methoxyethyl)-1H-benzo[d]imidazole-6-carboxylic acid]: the EC50 in data set [1] was found to be 260 nM. The inhibition at 2.5 h, 10 µM in data set [2] is 6.91%.
On the same counts, the results for `COCCn1c(Cc2c(F)cc(-c3cccc(OCc4ccc(Cl)cc4F)n3)cc2F)nc2ccc(C(=O)O)cc21` [Example 37, 2-(4-(6-(4-chloro-2-fluorobenzyloxy)pyridin-2-yl)-2,6-difluorobenzyl)-1-(2-methoxyethyl)-1H-benzo[d]imidazole-6-carboxylic acid] are 13 nM and -10.6%.
In the case of `COCCn1c(Cc2c(F)cc(-c3cccc(OCc4ccc(Cl)cc4F)c3)cc2F)nc2ccc(C(=O)O)cc21` [Example 48, 2-((3′-(4-chloro-2-fluorobenzyloxy)-3,5-difluorobiphenyl-4-yl)methyl)-1-(2-methoxyethyl)-1H-benzo[d]imidazole-6-carboxylic acid], the 50% effective concentration (EC50) in data set [1] was 42 nM. Moreover, in data set [2], the inhibition at 2.5 h, 10 µM is 14.3%.
On the same counts, the results for `O=C(O)c1ccc2nc(Cc3ccc(-c4cccc(COc5ccc(Cl)cc5F)n4)cc3F)n(C[C@H]3CCCO3)c2c1` [Example 45, (R)-2-(4-(6-((4-chloro-2-fluorophenoxy)methyl)pyridin-2-yl)-2-fluorobenzyl)-1-((tetrahydrofuran-2-yl)methyl)-1H-benzo[d]imidazole-6-carboxylic acid] are 3700 nM and 27.7%.
On the same counts, the results for `O=C(O)c1ccc2nc(Cn3cc(-c4cccc(OCc5ccc(Cl)cc5F)n4)cn3)n(C[C@@H]3CCO3)c2c1` [Example 131, (S)-2-((4-(6-((4-chloro-2-fluorobenzyl)oxy)pyridin-2-yl)-1H-pyrazol-1-yl)methyl)-1-(oxetan-2-ylmethyl)-1H-benzo[d]imidazole-6-carboxylic acid] are 1600 nM and -0.97%.
Turning to `O=C(O)c1ccc2nc(Cc3ccc(-c4cccc(OCc5ccc(Cl)cc5F)n4)cc3F)n(C[C@H]3CCCO3)c2c1` [Example 51, (R)-2-(4-(6-(4-chloro-2-fluorobenzyloxy)pyridin-2-yl)-2-fluorobenzyl)-1-((tetrahydrofuran-2-yl)methyl)-1H-benzo[d]imidazole-6-carboxylic acid], the 50% effective concentration (EC50) in data set [1] was found to be 52 nM. For the same compound, in data set [2], the inhibition at 2.5 h, 10 µM is -4.69%.
